Experiments:
[1] = Oral testosterone pharmacokinetics and serum metabolite profile (LC-MS/MS) in men with acyline-induced experimental hypogonadism, with and without dutasteride; format: in vivo, human; conditions: for AUC0-24 h at T800, fold higher than with T200: T800 vs T200; for AUC 0-24 h / Cmax / Tmax / t½ / CL/F: serum; for CL/F: male, human, oral
Experimental: T emulsion in sesame oil, mixed with milk, was administered orally to human subjects with acyline-induced experimental hypogonadism. The blood samples were collected and the serum was isolated and stored in −80° C. Steroids and their metabolites were extracted from serum using protein precipitation followed by solid-phase extraction and analyzed by UPLC coupled with SCIEX 6500 MS/MS.
Clinical study design is discussed below. All subjects provided written, informed consent prior to any study procedures. The study was approved by the University of Washington (UW) Investigational Review Board Committee.
While study was conducted with 200, 400 and 800 mg T dose, only T200 and T800 were quantified. […] Samples were mixed for 1 min by vortex mixing, and then centrifuged for 10 min at 3500×g at 4° C. […] Samples (2 mL) were loaded onto the cartridges and flow through was discarded.
Data were acquired by Analyst 1.6 software.

human hepatocytes = test: T metabolism in primary human hepatocytes (metabolite formation); conditions: for In vitro formation from T: primary human hepatocyte
Experimental: (§1) A targeted metabolomics study was performed on previously collected samples from an oral T pharmacokinetics (PK) study (800 mg). T and its primary and secondary metabolites in serum were quantified, and PK data of these steroids were analyzed using the non-compartmental method. […] Additionally, T-metabolism study was also performed in human hepatocytes for 1 h. The media and cell pellets were collected for subsequent metabolomics and proteomics analyses, respectively. Effect of dutasteride treatment on androgen metabolome was also investigated, both in vivo and in vitro.

5-AR type 1 and 2 = test: Dutasteride co-treatment with T in human hepatocyte culture; conditions: for Effect of dutasteride co-treatment on metabolite formation from T: p<0.01 for decreases
Experimental: as §1

[2] = oral T, humans; cited from earlier work
UGT2B17 = biological target: T1, UGT2B17 (Homo sapiens, UniProt O75795); conditions: scaled by absolute UGT2B abundance in the intestine
T1 sequence (O75795 24-530): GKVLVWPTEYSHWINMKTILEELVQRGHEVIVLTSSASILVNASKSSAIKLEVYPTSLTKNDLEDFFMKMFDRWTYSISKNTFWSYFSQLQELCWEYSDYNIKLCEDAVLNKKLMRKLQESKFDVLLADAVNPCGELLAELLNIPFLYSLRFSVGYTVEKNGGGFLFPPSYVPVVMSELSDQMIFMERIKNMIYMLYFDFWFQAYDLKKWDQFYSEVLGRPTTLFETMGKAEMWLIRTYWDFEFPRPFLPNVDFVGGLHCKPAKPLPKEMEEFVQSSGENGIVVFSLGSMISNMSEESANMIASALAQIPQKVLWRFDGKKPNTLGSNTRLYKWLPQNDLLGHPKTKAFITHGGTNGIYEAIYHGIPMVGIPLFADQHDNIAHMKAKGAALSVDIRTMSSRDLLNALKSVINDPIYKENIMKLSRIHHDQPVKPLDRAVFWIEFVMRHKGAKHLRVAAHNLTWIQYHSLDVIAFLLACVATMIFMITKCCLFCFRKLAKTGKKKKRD

[3] = T200 + D (200 mg oral T with dutasteride)
[4] = T800 + D (800 mg oral T with dutasteride)

SMILES	Absolute level in pooled serum, fold of baseline eugonadal state ([1]; T200) [fold]	Average serum AUC0-24 h ([1]; T200) [nmol/L-h]	Absolute level in pooled serum, fold of baseline eugonadal state ([1]; T800) [fold]	AUC0-24 h at T800, fold higher than with T200 [1] [fold]	AUC 0-24 h ([1]; T200) [nmol·h/L]	Cmax ([1]; T200) [nM]	Tmax ([1]; T200) [h]	t½ ([1]; T200 (200 mg oral T)) [h]	AUC 0-24 h ([1]; T200 + D) [nmol·h/L]	Cmax ([1]; T200 + D) [nM]	Tmax ([1]; T200 + D) [h]	t½ [1, 3] [h]	AUC 0-24 h ([1]; T800) [nmol·h/L]	Cmax ([1]; T800) [nM]	t½ ([1]; T800 (800 mg oral T)) [h]	AUC 0-24 h ([1]; T800 + D) [nmol·h/L]	Cmax ([1]; T800 + D) [nM]	Tmax ([1]; T800 + D) [h]	t½ [1, 4] [h]	Effect of dutasteride co-treatment on metabolite formation from T (5-AR type 1 and 2)	other results
C[C@]12CCC(=O)C=C1CC[C@@H]1[C@@H]2CC[C@]2(C)C(=O)CC[C@@H]12 [AED, Androstenedione]	2.3	373.7	14.9	4.2	373.7	66.3	2	12.7	1634.9	200	2	8.3	1551.8	280	6.8	10844.4	2300	2	5.2	No significant changes	Circulating level, fold higher with dutasteride vs T alone ([1]; T200+D and T800+D): 5.7 fold; Tmax ([1]; T800): 1 h; In vitro formation from T (human hepatocytes): 46%
C[C@]12CC[C@H]3[C@@H](CCC4=CC(=O)CC[C@@]43C)[C@@H]1CC[C@@H]2O[C@@H]1O[C@H](C(=O)O)[C@@H](O)[C@H](O)[C@H]1O [TG, Testosterone glucuronide]	78	857.2	277	–	857.2	–	–	4.4	373.4	–	–	4.3	14163.0	–	3.6	8589.7	–	–	2.7	No significant changes	Average AUC0-24 h with dutasteride, % with respect to T alone ([1]; T200+D vs T200): 43%; Average AUC0-24 h with dutasteride, % as compared to T alone ([1]; T800+D vs T800): 60%; Proportion of total T-related species in circulation ([1]; T dosed orally to men with experimental hypogonadism): 13%; Increase in TG/T ratio of dose-normalized AUC0-24 h ([1]; changing dose from 200 to 800 mg): 9.3 fold; AUC0-24 h, fold higher as compared to T AUC0-24 h ([1]; human serum, 800 mg dose): 85 fold; Level in hepatocyte media, fold lower than AG (human hepatocytes; human hepatocytes, T-treated): 3.7 fold; In vitro formation from T (human hepatocytes): 42%
C[C@]12CC[C@H]3[C@@H](CCC4=CC(=O)CC[C@@]43C)[C@@H]1CC[C@@H]2O [T, Testosterone, reference compound]	–	–	–	–	81.6	6	4	12.0	84.7	8.8	–	7.0	168.9	16.8	5.3	293.8	33	2	5.7	–	Change in serum T levels with dutasteride ([1]; 200 mg T dose): no significant increase; Increase in circulating T concentrations ([1]; 4-fold increase in dose (200 to 800 mg)): 2 fold; CL/F ([1]; 200 mg, T200): 106000 mL/min; CL/F ([1]; 800 mg, T800): 259000 mL/min; CL/F ([1]; T200 + D): 120000 mL/min; CL/F ([1]; T800 + D): 147000 mL/min; Oral bioavailability [2]: 2-8%; Contribution of UGT2B17 to intestinal glucuronidation (UGT2B17): 100%
C[C@]12C=CC(=O)N[C@@H]1CC[C@@H]1[C@@H]2CC[C@]2(C)[C@@H](C(=O)Nc3cc(C(F)(F)F)ccc3C(F)(F)F)CC[C@@H]12 [dutasteride, reference compound]	–	–	–	–	–	–	–	–	–	–	–	–	–	–	–	–	–	–	–	–	Inhibition of 5-AR type 1 and 2 mediated metabolism of T (5-AR type 1 and 2; co-treatment with T): complete inhibition
C[C@]12CCC(=O)C[C@@H]1CC[C@@H]1[C@@H]2CC[C@]2(C)[C@@H](O)CC[C@@H]12 [DHT, 5α-Dihydrotestosterone]	0.6	26.5	2.2	3.3	26.5	2	2	17.6	9.6	0.8	4	24.0	87.4	8.4	6.9	26.6	1.8	4	17.9	significant decreases	Average AUC0-24 h with dutasteride, % lower than T alone ([1]; T200): 64%; Average AUC0-24 h with dutasteride, % lower than T alone ([1]; T800): 70%; Tmax ([1]; T800): 2 h
C[C@]12CC[C@@H](O)C[C@@H]1CC[C@@H]1[C@@H]2CC[C@]2(C)C(=O)CC[C@@H]12 [A, Androsterone]	–	–	–	–	–	–	–	–	–	–	–	–	–	–	–	–	–	–	–	–	Circulating level, % lower in dutasteride treated samples vs T alone ([1]; T200+D): 30%; Circulating level, % lower in dutasteride treated samples vs T alone ([1]; T800+D): 87%

Source: patent US11131677B2 (University of Washington, priority 2018, dated 2021)
